Measurements published in ChEMBL document CHEMBL1155514, “Analysis of kinase inhibitor selectivity using a thermodynamics-based partition index” (J Med Chem, 2010).

How the values were obtained:
Angiopoietin-1 receptor [1] = biological target: T1, Angiopoietin-1 receptor (Homo sapiens, UniProt Q02763); experiment: Inhibition of Tie2 at 1 uM relative to control; values are per cent of control
[2] = biological target: Tyrosine-protein kinase Lck (Homo sapiens, UniProt P06239); experiment: Inhibition of LCK
[3] = biological target: T2, Vascular endothelial growth factor receptor 2 (Homo sapiens, UniProt P35968); experiment: Inhibition of KDR
Aurora kinase A = biological target: T3, Aurora kinase A (Homo sapiens, UniProt O14965); experiment: Inhibition of Aurora A
T3 sequence (O14965 whole entry): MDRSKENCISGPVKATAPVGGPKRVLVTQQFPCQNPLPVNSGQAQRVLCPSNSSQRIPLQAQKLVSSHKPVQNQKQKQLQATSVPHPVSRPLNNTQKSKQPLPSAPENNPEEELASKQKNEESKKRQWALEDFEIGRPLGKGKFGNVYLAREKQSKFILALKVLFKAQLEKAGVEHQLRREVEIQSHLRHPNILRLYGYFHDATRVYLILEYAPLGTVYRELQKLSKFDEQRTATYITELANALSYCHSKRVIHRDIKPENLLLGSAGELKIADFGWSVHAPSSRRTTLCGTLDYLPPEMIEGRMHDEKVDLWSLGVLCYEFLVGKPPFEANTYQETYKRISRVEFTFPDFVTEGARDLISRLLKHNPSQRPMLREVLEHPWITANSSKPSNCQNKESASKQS

Aurora kinase B [4] = biological target: T4, Aurora kinase B (Homo sapiens, UniProt Q96GD4); experiment: Inhibition of Aurora B at 1 uM relative to control; values are per cent of control
Aurora kinase B [5] = biological target: T4, Aurora kinase B; experiment: Inhibition of Aurora B
[6] = biological target: T2, Vascular endothelial growth factor receptor 2; experiment: Inhibition of KDR at 1 uM relative to control; values are per cent of control
[7] = biological target: T5, Aurora kinase A (Homo sapiens) (UniProt O14965); experiment: Inhibition of Aurora A at 1 uM relative to control; values are per cent of control
T5 sequence (whole entry): T3 sequence (O14965 whole entry)

[8] = Selectivity ratio of IC50 for LCK to IC50 for Tie2
[9] = Selectivity ratio of IC50 for KDR to IC50 for Tie2
[10] = Selectivity ratio of IC50 for Aurora A to IC50 for Tie2
[11] = Selectivity ratio of IC50 for Aurora B to IC50 for Tie2
Angiopoietin-1 receptor [12] = biological target: T1, Angiopoietin-1 receptor; experiment: Inhibition of Tie2

T4 sequence (Q96GD4 whole entry): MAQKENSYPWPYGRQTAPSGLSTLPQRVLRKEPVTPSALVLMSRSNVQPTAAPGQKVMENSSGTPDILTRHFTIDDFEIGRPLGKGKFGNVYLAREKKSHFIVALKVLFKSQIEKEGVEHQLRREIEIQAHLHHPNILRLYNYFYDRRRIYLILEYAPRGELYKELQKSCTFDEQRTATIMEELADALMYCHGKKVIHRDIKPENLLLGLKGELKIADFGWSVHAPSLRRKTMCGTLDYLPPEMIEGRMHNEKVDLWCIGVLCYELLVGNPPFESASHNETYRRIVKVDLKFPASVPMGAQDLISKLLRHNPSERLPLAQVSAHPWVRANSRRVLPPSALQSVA
Chain of Tyrosine-protein kinase Lck (P06239 whole entry): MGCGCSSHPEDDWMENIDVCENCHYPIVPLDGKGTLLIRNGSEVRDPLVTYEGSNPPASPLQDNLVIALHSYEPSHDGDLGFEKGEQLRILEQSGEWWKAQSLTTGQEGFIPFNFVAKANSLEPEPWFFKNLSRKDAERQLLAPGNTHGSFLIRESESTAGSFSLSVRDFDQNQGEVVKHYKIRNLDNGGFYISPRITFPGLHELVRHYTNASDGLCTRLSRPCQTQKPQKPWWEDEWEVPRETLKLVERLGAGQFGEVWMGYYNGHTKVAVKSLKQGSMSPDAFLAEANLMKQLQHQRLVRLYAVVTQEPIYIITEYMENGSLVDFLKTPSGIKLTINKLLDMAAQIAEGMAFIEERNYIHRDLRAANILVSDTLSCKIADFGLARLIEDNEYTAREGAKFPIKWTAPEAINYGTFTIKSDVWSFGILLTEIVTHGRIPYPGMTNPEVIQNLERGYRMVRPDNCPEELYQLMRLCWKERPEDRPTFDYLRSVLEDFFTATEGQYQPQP
T2 sequence (P35968 whole entry): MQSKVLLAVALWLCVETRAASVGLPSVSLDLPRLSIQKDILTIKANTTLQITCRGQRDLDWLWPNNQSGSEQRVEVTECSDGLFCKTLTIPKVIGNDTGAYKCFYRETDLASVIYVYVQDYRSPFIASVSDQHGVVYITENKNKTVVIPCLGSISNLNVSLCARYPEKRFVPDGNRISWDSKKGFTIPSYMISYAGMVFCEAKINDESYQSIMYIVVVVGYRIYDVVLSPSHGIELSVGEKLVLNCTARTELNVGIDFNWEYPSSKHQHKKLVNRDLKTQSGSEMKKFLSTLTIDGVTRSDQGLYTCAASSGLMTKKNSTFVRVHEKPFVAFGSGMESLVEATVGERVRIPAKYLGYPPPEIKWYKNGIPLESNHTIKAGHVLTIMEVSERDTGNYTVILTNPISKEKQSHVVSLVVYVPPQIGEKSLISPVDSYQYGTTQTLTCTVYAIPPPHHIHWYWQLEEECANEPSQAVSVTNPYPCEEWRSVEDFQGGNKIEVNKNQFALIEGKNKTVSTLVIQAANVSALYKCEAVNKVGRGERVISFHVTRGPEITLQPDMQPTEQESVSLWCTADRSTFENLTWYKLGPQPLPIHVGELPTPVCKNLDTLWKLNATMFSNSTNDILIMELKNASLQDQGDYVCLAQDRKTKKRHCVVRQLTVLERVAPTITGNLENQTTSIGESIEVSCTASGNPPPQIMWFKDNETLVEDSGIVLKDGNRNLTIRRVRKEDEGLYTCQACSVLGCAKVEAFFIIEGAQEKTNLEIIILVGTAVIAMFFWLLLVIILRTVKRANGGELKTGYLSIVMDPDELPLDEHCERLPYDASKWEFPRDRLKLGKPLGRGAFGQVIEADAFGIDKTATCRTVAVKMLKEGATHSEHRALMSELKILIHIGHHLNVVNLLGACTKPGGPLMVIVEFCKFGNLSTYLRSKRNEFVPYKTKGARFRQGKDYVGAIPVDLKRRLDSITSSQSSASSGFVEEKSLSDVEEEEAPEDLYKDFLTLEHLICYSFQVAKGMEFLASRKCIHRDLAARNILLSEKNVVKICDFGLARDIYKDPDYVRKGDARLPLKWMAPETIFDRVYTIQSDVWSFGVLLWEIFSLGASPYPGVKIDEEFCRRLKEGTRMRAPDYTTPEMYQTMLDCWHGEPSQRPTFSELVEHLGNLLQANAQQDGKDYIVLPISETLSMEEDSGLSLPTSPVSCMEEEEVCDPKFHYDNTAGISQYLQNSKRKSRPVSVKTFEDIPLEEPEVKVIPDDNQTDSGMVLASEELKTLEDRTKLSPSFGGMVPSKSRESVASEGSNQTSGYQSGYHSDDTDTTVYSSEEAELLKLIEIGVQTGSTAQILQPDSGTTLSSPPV
T1 sequence (Q02763 whole entry): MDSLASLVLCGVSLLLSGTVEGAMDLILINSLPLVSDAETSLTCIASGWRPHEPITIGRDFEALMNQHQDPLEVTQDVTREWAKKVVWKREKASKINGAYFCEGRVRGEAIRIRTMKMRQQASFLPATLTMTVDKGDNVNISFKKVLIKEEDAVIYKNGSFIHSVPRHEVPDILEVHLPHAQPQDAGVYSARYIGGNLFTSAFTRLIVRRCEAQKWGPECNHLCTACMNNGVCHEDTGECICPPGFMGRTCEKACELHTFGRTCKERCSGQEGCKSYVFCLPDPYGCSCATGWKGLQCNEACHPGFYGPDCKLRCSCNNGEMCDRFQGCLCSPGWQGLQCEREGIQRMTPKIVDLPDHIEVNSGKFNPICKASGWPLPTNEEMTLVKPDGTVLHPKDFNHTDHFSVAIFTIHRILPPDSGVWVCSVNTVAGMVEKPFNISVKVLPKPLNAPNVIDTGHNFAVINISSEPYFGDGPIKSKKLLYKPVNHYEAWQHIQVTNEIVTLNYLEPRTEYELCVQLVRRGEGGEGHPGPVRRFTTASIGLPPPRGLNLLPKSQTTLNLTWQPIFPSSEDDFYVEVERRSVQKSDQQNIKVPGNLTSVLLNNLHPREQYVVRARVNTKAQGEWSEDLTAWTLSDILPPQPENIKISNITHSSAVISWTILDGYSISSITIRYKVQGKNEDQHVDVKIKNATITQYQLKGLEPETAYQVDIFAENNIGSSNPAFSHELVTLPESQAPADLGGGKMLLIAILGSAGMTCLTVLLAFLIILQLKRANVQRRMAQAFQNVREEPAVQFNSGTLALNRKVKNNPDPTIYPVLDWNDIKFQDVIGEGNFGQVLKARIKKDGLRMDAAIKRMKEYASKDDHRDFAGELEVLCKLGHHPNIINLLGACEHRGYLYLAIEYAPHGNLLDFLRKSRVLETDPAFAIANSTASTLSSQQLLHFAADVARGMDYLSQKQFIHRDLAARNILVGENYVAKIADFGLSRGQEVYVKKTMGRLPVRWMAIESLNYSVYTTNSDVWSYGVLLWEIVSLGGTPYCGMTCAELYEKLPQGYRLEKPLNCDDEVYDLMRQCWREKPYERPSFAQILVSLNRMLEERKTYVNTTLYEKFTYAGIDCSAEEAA

Row | Structure (SMILES) | residual activity (Angiopoietin-1 receptor [1]) | IC50 [2] | IC50 [3] | residual activity (Aurora kinase B [4]) | IC50 (Aurora kinase B [5]) | residual activity [6] | residual activity [7] | Ratio IC50 [8] | Ratio IC50 [9] | Ratio IC50 [10] | Ratio IC50 [11] | IC50 (Angiopoietin-1 receptor [12]) | IC50 (Aurora kinase A)
1 | CCN1CCC(CNc2nccc(-c3cccnc3Oc3ccc(Nc4nc5ccccc5[nH]4)c4ccccc34)n2)CC1 | 0% | 387 nM | 1750 nM | 9% | 100 nM | 64% | 25% | 387 | 1750 | 332 | 100 | 1 nM | 332 nM
2 | CN1CCCC1CCNc1nccc(-c2cccnc2Oc2ccc(Nc3nc4ccccc4[nH]3)c3ccccc23)n1 (stereo unspecified) | 0% | 269 nM | 2060 nM | 4% | 47 nM | 67% | 25% | 120 | – | 146 | 21 | 2 nM | 327 nM
3 | CNc1nccc(-c2cccnc2Oc2ccc(Nc3nc4ccccc4o3)c3ccccc23)n1 | 2% | 25 nM | – | 12% | 134 nM | 3% | 12% | 2 | 2 | 9 | 3 | – | 141 nM
4 | CNc1nccc(-c2cccnc2Oc2ccc(Nc3nc4ccncc4[nH]3)c3ccccc23)n1 | 8% | 4800 nM | 6360 nM | 31% | 454 nM | 86% | 52% | 56 | 74 | 12 | 5 | 86 nM | 1070 nM
5 | CNc1nccc(-c2cccnc2Oc2ccc(Nc3nc4ccccc4s3)c3ccccc23)n1 | 4% | 80 nM | – | 13% | 143 nM | 8% | 28% | 2 | 2 | 9 | 3 | – | 380 nM
6 | CNc1nccc(-c2cccnc2Oc2ccc(Nc3nc4cc(C(F)(F)F)ccc4[nH]3)c3ccccc23)n1 | – | 132 nM | – | – | 56 nM | – | – | – | – | – | – | – | 16 nM
7 | CNc1nccc(-c2cccnc2Oc2ccc(NC(=O)Nc3ccccc3)c3ccccc23)n1 | 1% | 48 nM | – | 2% | 23 nM | 4% | 5% | 9 | 7 | 10 | 4 | – | 52 nM

More lines, main results first:

Row | residual activity (Angiopoietin-1 receptor [1]) | IC50 [2] | IC50 [3] | residual activity (Aurora kinase B [4]) | IC50 (Aurora kinase B [5]) | residual activity [6] | residual activity [7] | Ratio IC50 [8] | Ratio IC50 [9] | Ratio IC50 [10] | Ratio IC50 [11] | IC50 (Angiopoietin-1 receptor [12]) | Structure (SMILES) | IC50 (Aurora kinase A)
8 | 0% | 405 nM | 10000 nM | 7% | 77 nM | 91% | 3% | – | – | – | – | – | CNc1nccc(-c2cccnc2Oc2c(C)cc(Nc3nc4ccccc4[nH]3)c3ccccc23)n1 | 29 nM
9 | 8% | 10000 nM | 10000 nM | 43% | 759 nM | 91% | 62% | 123 | 123 | 20 | 9 | 82 nM | CN(C)CC(C)(C)CNc1nccc(-c2cccnc2Oc2ccc(Nc3nc4ccccc4[nH]3)c3ccccc23)n1 | 1660 nM
10 | 0% | 292 nM | – | 1% | 9 nM | 58% | 2% | 211 | 998 | 14 | 7 | – | CNc1nccc(-c2cccnc2Oc2ccc(Nc3nc4ccccc4[nH]3)c3ccccc23)n1 | –
11 | 18% | 4090 nM | 2220 nM | 5% | 55 nM | 69% | 18% | 19 | 10 | 1 | 0.1 | 215 nM | CNc1nccc(-c2cccnc2Oc2ccc(NC(=O)NC(C)(C)C)c3ccccc23)n1 | 225 nM
12 | 3% | – | – | 5% | – | 6% | 2% | 5 | 3 | 1 | 2 | – | CNc1nccc(-c2cccnc2Oc2ccc(Nc3nc4ccc(C(F)(F)F)cc4[nH]3)c3ccccc23)n1 | –
